Read-outs that look alike come from different tables or passages of the source.
Key:
[1] = target: T1, wild-type human ALK protein (cytoplasmic domain, amino acid 1058-1620) (Homo sapiens, UniProt Q9UM73); experiment: Wild-type ALK kinase inhibition, Lance TR-FRET assay; type: biochemical
T1 construct: The cytoplasmic domain (amino acid 1058-1620) of wild-type human ALK protein; purchased Carna Biosciences, Inc (Japan)
Description: The cytoplasmic domain (amino acid 1058-1620) of wild-type human ALK protein expressed as N-terminal GST-fusion protein was purchased from Carna Biosciences, Inc (Japan). Mutated ALK proteins were expressed in SF9 insect cells with N-terminal tags cleaved after purification. Kinase activities of all enzymes were assessed using a Lance® TR-FRET assay kit from Perkin Elmer Life Sciences (Waltham, Mass.). 2.5 μL of compound solution and 5 μL of protein solution were added into a black low volume 384 well microtiter plate which was incubated for 30 minutes with gentle shaking at room temperature, followed by adding 2.5 μL of fluorescently labeled peptide substrate (ULight™-IRS-1 (Tyr983) Peptide) and ATP mixture solution. The kinase reaction was performed in 50 mM HEPES (pH 7.5) with 1 mM EGTA, 1 mM MgCl2, and 2 mM DTT, 0.01% Tween-20 added right before the assay. Final concentrations of ATP, substrates, and DMSO were 100 μM, 20 nM, and 0.5%, respectively. […] Final ALK concentrations were 1 nM, 1 nM, InM, 128 nM, 2 nM, and 4 nM for wild-type, F1174L, L1196M, S1206Y, G1269A, and G1202R, respectively. The reaction was allowed to perform for 90 minutes in dark with gentle shaking at room temperature after which 10 μL of 20 mM EDTA and 2 nM Eu-W1024 anti-phosphotyrosine antibody (PT66) mixture solution in the detection buffer from the manufacturer was added to terminate the reaction and detect the phosphorylation of the peptide substrate. The final mixture was incubated in the dark for 1 hour before the plate was read on a Tecan Infinite M-1000 multi-mode plate reader (Tecan, Durham N.C.) with an excitation wavelength of 320 nm. Emission intensities were measured at both 620 and 665 nm with the intensity ratio between 665 and 620 nm corresponding to the peptide substrate phosphorylation. IC50 values of inhibitors were obtained by fitting the ratio of 665/620 nm vs inhibitor concentrations in a sigmoidal dose-response curve (variable slope) with a non-linear regression.

ALK F1197M = target: T2, ALK F1197M (Homo sapiens, UniProt Q9UM73); experiment: Mutant ALK kinase inhibition, F1197M; type: biochemical; conditions: Table 5
T2 construct: Mutated ALK proteins were expressed in SF9 insect cells with N-terminal tags cleaved after purification; fused on or other part: N-terminal tag, cleaved after purification

ALK G1269A = target: T3, ALK G1269A (Homo sapiens, UniProt Q9UM73, G1269A); experiment: Mutant ALK kinase inhibition, Lance TR-FRET, G1269A; type: biochemical; conditions: Table 5; ATP 100 μM
T3 construct: made in house; host or cells: SF9 insect cells
Description: The cytoplasmic domain (amino acid 1058-1620) of wild-type human ALK protein expressed as N-terminal GST-fusion protein was purchased from Carna Biosciences, Inc (Japan). Mutated ALK proteins were expressed in SF9 insect cells with N-terminal tags cleaved after purification. Kinase activities of all enzymes were assessed using a Lance® TR-FRET assay kit from Perkin Elmer Life Sciences (Waltham, Mass.). 2.5 μL of compound solution and 5 μL of protein solution were added into a black low volume 384 well microtiter plate which was incubated for 30 minutes with gentle shaking at room temperature, followed by adding 2.5 μL of fluorescently labeled peptide substrate (ULight™-IRS-1 (Tyr983) Peptide) and ATP mixture solution. The kinase reaction was performed in 50 mM HEPES (pH 7.5) with 1 mM EGTA, 1 mM MgCl2, and 2 mM DTT, 0.01% Tween-20 added right before the assay. Final concentrations of ATP, substrates, and DMSO were 100 μM, 20 nM, and 0.5%, respectively. […] The final mixture was incubated in the dark for 1 hour before the plate was read on a Tecan Infinite M-1000 multi-mode plate reader (Tecan, Durham N.C.) with an excitation wavelength of 320 nm. Emission intensities were measured at both 620 and 665 nm with the intensity ratio between 665 and 620 nm corresponding to the peptide substrate phosphorylation. […]

ALK G1202R = ALK G1202R (Homo sapiens, UniProt Q9UM73, G1202R); experiment: Mutant ALK kinase inhibition, Lance TR-FRET, G1202R; type: biochemical
Description: Mutated ALK proteins were expressed in SF9 insect cells with N-terminal tags cleaved after purification. […] The kinase reaction was performed in 50 mM HEPES (pH 7.5) with 1 mM EGTA, 1 mM MgCl2, and 2 mM DTT, 0.01% Tween-20 added right before the assay. […] The final mixture was incubated in the dark for 1 hour before the plate was read on a Tecan Infinite M-1000 multi-mode plate reader (Tecan, Durham N.C.) with an excitation wavelength of 320 nm.

ALK V1180L = ALK V1180L (Homo sapiens, UniProt Q9UM73, V1180L); experiment: Cell based assay, ALK V1180L; design: key: + = active; −− = inactive; conditions: Table 5
ROS1 = target: T4, ROS1 (Homo sapiens, UniProt P08922); experiment: KINOMEscan kinase panel, ROS1; type: binding
T4 construct: purchased LeadHunter Discovery Services (currently DiscoverX Corporation), KINOMEscan screening service
Description: (§1) Cpd. No. 5 was screened for its activity against a panel of human kinases using the KINOMEscan™ screening platform from LeadHunter Discovery Services (currently DiscoverX Corporation (Fremont, Calif. 94538, United States). See Table 7.

LTK = target: T5, LTK (Homo sapiens, UniProt P29376); experiment: KINOMEscan kinase panel, LTK; type: binding
T5 construct: purchased LeadHunter Discovery Services (currently DiscoverX Corporation), KINOMEscan screening service
Description: as §1

FER = target: T6, FER (Homo sapiens, UniProt P16591); experiment: KINOMEscan kinase panel, FER; type: binding
T6 construct: purchased LeadHunter Discovery Services (currently DiscoverX Corporation), KINOMEscan screening service
Description: as §1

IGF1R = target: T7, IGF1R (Homo sapiens, UniProt P08069); experiment: KINOMEscan kinase panel, IGF1R; type: binding
T7 construct: purchased LeadHunter Discovery Services (currently DiscoverX Corporation), KINOMEscan screening service
Description: as §1

[2] = Pharmacokinetics in beagle dogs; type: in vivo; conditions: Table 9 (beagle dogs)
Description: Routine pharmacokinetics studies were performed for Cpd. No. 5 in SD rats and beagle dogs.

Work on `Cc1cc(Nc2ncc(Cl)c(Nc3ccccc3S(=O)(=O)C(C)C)n2)c(OC(C)C)cc1C1=CCN(C2CCOCC2)CC1` [Cpd. No. 5, 5-chloro-N2-(2-isopropoxy-5-methyl-4-(1-(tetrahydro-2H-pyran-4-yl)-1,2,3,6-tetrahydropyridin-4-yl)phenyl)-N4-(2-(isopropylsulfonyl)phenyl)pyrimidine-2,4-diamine] yielded an IC50 ([1]; Table 4, target not given, Cpd. No. 5 value equals WT ALK IC50 of Table 5, read-out: Inhibitory activity) of 0.85 nM, an IC50 ([1]; Table 5, ATP 100 μM, read-out: IC50 (nM), WT) of 0.85 nM and an IC50 (ALK F1197M) of 3.3 nM. The IC50 (ALK G1269A) was 4.3 nM, the IC50 (ALK G1202R; Table 5, ATP 100 μM, read-out: IC50 (nM), G1202R) was 9.2 nM and the IC50 (ALK G1202R; Table 6, comparison with known ALK inhibitors, read-out: G1202R IC50) was 9.2 nM. For the same compound, the “V1180L (c)” value (ALK V1180L) was “+ (c)”, the Kd (ROS1) was 0.73 nM and the Kd (LTK) was 0.62 nM. For the same compound, the Kd (FER) was 11 nM, the Kd (IGF1R) was 9 nM and the “F(AUC0-t)” value ([2]; PO 5 mg/kg vs IV 1 mg/kg) was 33.3%. The MRT inf ([2]; dog, in vivo, IV 1 mg/kg) was 22.1 h, the AUC(0-t) ([2]; dog, in vivo, IV 1 mg/kg, read-out: AUC0-t (ng · h/mL) IV) was 1820 ng·h/mL and the AUC(0-inf) ([2]; dog, in vivo, IV 1 mg/kg, read-out: AUC0-∞ (ng · h/mL) IV) was 2140 ng·h/mL. It also gave a clearance ([2]; dog, in vivo, IV 1 mg/kg, read-out: CL (iv) (converted)) of 8.1 mL/min/kg, a Cmax ([2]; dog, in vivo, IV 1 mg/kg, read-out: Cmax(ng/mL) IV) of 314 ng/mL and a Tmax ([2]; dog, in vivo, IV 1 mg/kg, read-out: Tmax (h) IV) of 0.083 h. It also gave a Vd ([2]; dog, in vivo, IV 1 mg/kg, read-out: Vss (iv)) of 10.8 L/kg, a half-life ([2]; dog, in vivo, IV 1 mg/kg, read-out: t1/2 (h) IV (converted)) of 19.7 h and an AUC(0-t) ([2]; dog, in vivo, PO 5 mg/kg, read-out: AUC0-t (ng · h/mL) PO) of 2930 ng·h/mL. The AUC(0-inf) ([2]; dog, in vivo, PO 5 mg/kg, read-out: AUC0-∞ (ng · h/mL) PO) was 3710 ng·h/mL, the Cmax ([2]; dog, in vivo, PO 5 mg/kg, read-out: Cmax(ng/mL) PO) was 239 ng/mL and the Tmax ([2]; dog, in vivo, PO 5 mg/kg, read-out: Tmax (h) PO) was 1.67 h. For the same compound, the half-life ([2]; dog, in vivo, PO 5 mg/kg, read-out: t1/2 (h) PO (converted)) was 20 h.

— patent US10709705B2, “Aminopyrimidines as ALK inhibitors” (THE REGENTS OF THE UNIVERSITY OF MICHIGAN, priority 2016, dated 2020)
